Laboratory results as given in article PMC8847695 (Frontiers in Chemistry, 2022).

Assays:
Assay type in all cases: binding
Settings in all cases: 1 = hit, 0 = no hit
CAMK1G (1-320) = biological target: T1, CAMK1G (1-320) (Homo sapiens, UniProt Q96NX5); test: STD-NMR fragment screening, CAMK1G
T1 construct: made in house; host or cells: E. coli BL21 (DE3) pLysS
Method: (§1) All fragments were stored at −20°C as solids in argon flushed glass bottles. For NMR screening, fragments were weighed and dissolved in DMSO-d6 to a stock concentration of 300 mM. Mother plates were prepared with a 100 mM concentration. From these plates, daughter plates were prepared with the fragments mixed in the plates to a concentration of 50 mM for each fragment. Daughter plates were opened a maximum of eight times. The plates were argon flushed and sealed with a HT121TS (HTA) and Foil Heat Seal (Biozym).
(§2) For long time measurements, like the protein ^1H NMR spectrum, the buffer exchange was performed twice to reduce residual buffer peaks. All experiments were performed on a Bruker Avance III HDX 700 instrument, equipped with a 5 mm Prodigy TCI cryo-probehead. For every protein, a standard ^1H NMR experiment with 1 k scans and water suppression through presaturation was performed. […] The on-resonance frequency, which was determined from the ^1H NMR spectra of the protein, was between 0.5 and 0.6 ppm; 40 ppm was used as the off-resonance frequency. For an interleaved acquisition of the on- and off-resonance, a pseudo-2D scheme was applied. The saturation was done by Gaussian pulses with a length of 50 ms and 60 dB of attenuation, with an interpulse delay of 1 ms leading to an excitation bandwidth of about 42 Hz. The screening was done with 16 scans of on- and off-resonance scans each, with a 3 s saturation time. The samples contained final concentrations of 20 µM protein, 10% (^V/V) DMSO-d6, and 1 mM of each of the two fragments. A ^1H-NMR experiment was performed for each compound to act as a reference spectrum in the STD experiments. All NMR experiments were carried out at 25°C.
(§3) Fifteen of these compounds contain the same halogen twice. No compound bears mixtures of different halogen atoms. Four proteins (AAK1, CAMK1G, IDO1, and DOT1L) were screened against this HEFLib using STD-NMR. A fragment was considered a hit if the peak intensity in the difference spectrum was three times higher than the local background noise. […] Chemical compatibility and peak complementarity were assured for these mixtures. Samples containing more than two fragments were avoided to minimize the possible target competition and to decrease the risk of fragment interactions. […] The ^1H reference NMR spectrum of the mixture is shown in red for comparison. […] As fragment mixtures can lead to competitive effects between their fragments, it is not advised to use the quantification of peak mixtures for hit ranking.

DOT1L (1-416) = biological target: T2, DOT1L (1-416) (Homo sapiens, UniProt Q8TEK3); test: STD-NMR fragment screening, DOT1L
T2 construct: made in house; host or cells: E. coli BL21 (DE3) pLysS
T2 sequence (Q8TEK3 1-416): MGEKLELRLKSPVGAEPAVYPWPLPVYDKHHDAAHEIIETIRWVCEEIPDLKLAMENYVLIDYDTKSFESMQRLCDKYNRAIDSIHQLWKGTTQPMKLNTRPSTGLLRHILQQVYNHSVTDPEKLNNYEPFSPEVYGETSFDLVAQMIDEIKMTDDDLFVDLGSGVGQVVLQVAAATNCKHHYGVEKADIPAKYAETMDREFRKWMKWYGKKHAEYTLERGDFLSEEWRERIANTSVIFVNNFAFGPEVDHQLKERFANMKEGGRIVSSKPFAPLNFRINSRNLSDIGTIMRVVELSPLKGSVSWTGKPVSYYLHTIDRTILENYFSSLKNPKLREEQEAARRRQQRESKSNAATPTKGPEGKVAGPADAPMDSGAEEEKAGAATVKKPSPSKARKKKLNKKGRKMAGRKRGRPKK
Method: as §1, §2, §3

AAK1 (121-471) = AAK1 (121-471) (Homo sapiens, UniProt Q2M2I8); test: STD-NMR fragment screening, AAK1
AAK1 (121-471), sequence (Q2M2I8 46-315 limits assumed): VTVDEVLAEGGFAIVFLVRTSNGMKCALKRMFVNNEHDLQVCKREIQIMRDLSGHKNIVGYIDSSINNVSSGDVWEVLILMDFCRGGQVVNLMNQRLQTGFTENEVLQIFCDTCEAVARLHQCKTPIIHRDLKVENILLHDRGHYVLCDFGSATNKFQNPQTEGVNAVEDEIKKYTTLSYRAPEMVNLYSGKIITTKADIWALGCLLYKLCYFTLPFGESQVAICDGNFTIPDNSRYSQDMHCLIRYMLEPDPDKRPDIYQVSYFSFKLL
Method: as §1, §2, §3

IDO1 (1-435) = biological target: T3, IDO1 (1-435) (Homo sapiens, UniProt P14902); test: STD-NMR fragment screening, IDO1
T3 construct: His-tag of pET15b with TEV site (thrombin site replaced) (cleaved yes); made in house; host or cells: E. coli Rosetta 2 (DE3) pLysS
T3 sequence (P14902 whole entry, the tested form may be a part): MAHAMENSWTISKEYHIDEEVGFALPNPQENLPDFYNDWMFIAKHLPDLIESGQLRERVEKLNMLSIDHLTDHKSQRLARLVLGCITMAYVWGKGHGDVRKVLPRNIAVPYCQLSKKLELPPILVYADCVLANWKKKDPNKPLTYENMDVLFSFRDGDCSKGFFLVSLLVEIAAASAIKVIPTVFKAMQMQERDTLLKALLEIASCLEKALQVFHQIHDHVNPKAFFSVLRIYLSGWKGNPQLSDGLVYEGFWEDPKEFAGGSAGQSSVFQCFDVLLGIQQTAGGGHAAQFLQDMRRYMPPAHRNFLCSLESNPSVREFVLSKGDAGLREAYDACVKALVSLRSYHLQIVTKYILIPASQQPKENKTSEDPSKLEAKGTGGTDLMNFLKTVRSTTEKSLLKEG
Method: as §1, §2, §3

T1 sequence (Q96NX5 1-320): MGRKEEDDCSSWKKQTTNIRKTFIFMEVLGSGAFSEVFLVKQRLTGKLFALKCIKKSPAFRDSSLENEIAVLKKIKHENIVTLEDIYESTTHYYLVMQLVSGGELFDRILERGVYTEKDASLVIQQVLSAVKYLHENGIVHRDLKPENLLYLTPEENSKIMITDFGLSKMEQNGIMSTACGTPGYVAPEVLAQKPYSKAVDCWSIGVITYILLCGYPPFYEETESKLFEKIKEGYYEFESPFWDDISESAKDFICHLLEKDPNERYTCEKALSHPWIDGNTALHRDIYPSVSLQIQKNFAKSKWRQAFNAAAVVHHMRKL

Compound	CAMK1G (STD-NMR hit flag) (CAMK1G (1-320))	DOT1L (STD-NMR hit flag) (DOT1L (1-416))	AAK1 (STD-NMR hit flag) (AAK1 (121-471))	IDO1 (STD-NMR hit flag) (IDO1 (1-435))
Nc1ncnc(C(=O)O)c1Cl [Fragment B02290472]	0	0	0	0
COc1ccc(I)cc1CNCCO [Fragment B02290112]	0	0	0	0
O=C(O)c1ccncc1Br [Fragment B02297426]	0	0	0	0
CCOC(=O)c1coc(Cl)n1 [Fragment B02289613]	0	0	0	0
O=C(O)c1cc(Cl)c[nH]1 [Fragment B02291221]	0	0	0	0
[O-][n+]1ccc(Cl)cc1 [Fragment B02297421]	0	0	0	0
O=C(O)c1cc(Br)c(O)cc1O [Fragment B02297413]	0	0	1	1
Nc1cc(Cl)cc([N+](=O)[O-])c1O [Fragment B02291244]	0	0	0	0
Cc1ncccc1Br [Fragment B02289619]	1	0	0	0
O=C(c1cc(Br)c[nH]1)N1CCOCC1 [Fragment B02290115]	1	0	0	0
OB(O)c1ccc(Cl)nc1F [Fragment B02289599]	0	0	0	0
CN1CCN(c2ccc(Br)cn2)CC1 [Fragment B02297404]	0	0	0	0
Brc1cnc2[nH]nnc2c1 [Fragment B02290482]	0	0	0	0
O=C(O)c1cccc(Cl)n1 [Fragment B02289597]	0	0	0	0
N#Cc1ccc(O)c(Cl)c1 [Fragment B02291257]	0	0	1	0
Brc1cnn2cccnc12 [Fragment B02289610]	1	0	1	0
Cn1c(=O)cc(Cl)[nH]c1=O [Fragment B02290524]	0	0	0	0
Cn1ncc(Br)c1C(=O)O [Fragment B02290116]	0	0	0	1
Cn1nc(Br)c(C(=O)NCC(=O)O)c1N [Fragment B02291252]	0	0	1	0
CN1CCN(C(CN)c2ccccc2Cl)CC1 (centres unmarked) [Fragment B02290483]	0	0	0	0
